Results reported in ChEMBL document CHEMBL3301472, “MMV Malaria Box HIV and cytotoxicity screening”.

Tests used:
Assay type in all cases: toxicity, cell-based
[1] = MMV: MTT Cytotoxicity Assay Day 3 pi, U87-CD4-CCR5 cells, % cell death @ 5mM compound; details: human, u87-cd4-ccr5, 5000 µM
[2] = MMV: MTT Cytotoxicity Assay Day 3 pi, U87-CD4-CXCR4 cells, % cell death @ 5mM compound; details: human, u87-cd4-cxcr4, 5000 µM
[3] = MMV: MTT Cytotoxicity Assay Day 7 pi of Assay #6 (compound washed out Day 1 pi), U87-CD4-CCR5 cells, % cell death @ 5mM compound; details: human, u87-cd4-ccr5, 5000 µM
[4] = MMV: MTT Cytotoxicity Assay Day 7 pi of Assay #7 (compound washed out Day 1 pi), U87-CD4-CXCR4 cells, % cell death @ 5mM compound; details: human, u87-cd4-cxcr4, 5000 µM
[5] = MMV: MTT Cytotoxicity Assay Day 7 pi of Assay #10 (NO washout), U87-CD4-CCR5 cells, % cell death @ 5mM compound; details: human, u87-cd4-ccr5, 5000 µM
[6] = MMV: MTT Cytotoxicity Assay Day 7 pi of Assay #11 (NO washout), U87-CD4-CXCR4 cells, % cell death @ 5mM compound; details: human, u87-cd4-cxcr4, 5000 µM

Compound | % Cell Death [1] | % Cell Death [2] | % Cell Death [3] | % Cell Death [4] | % Cell Death [5] | % Cell Death [6]
COc1cccc(C(=O)NC(c2ccc(C)cc2)c2cc(Cl)c3cccnc3c2O)c1 (configuration not stated) | 88 | 68 | 23 | -4 | 26 | -24
Cc1ccc(-c2cc3nc4c(c(O)n3n2)CCCC4)cc1 | 70 | 56 | 24 | 52 | 113 | 97
CCOc1ccc(Nc2ccnc3cc(Cl)ccc23)cc1 | 35 | 78 | 20 | 47 | 72 | -19
CCOc1c(Br)cc(C2C(C(=O)OC)=CN(C)C=C2C(=O)OC)cc1OC | 30 | 21 | -1 | 19 | 30 | 30
CCOc1ccccc1NC(=O)CN1CCN(C(=O)c2ccco2)CC1 | -66 | -22 | 13 | 38 | 37 | 36
Oc1ccc2ccccc2c1CNc1nc2ccccc2[nH]1 | 53 | 32 | -27 | -22 | 36 | 42
CCn1nc(-c2ccc(C(=O)OC)cc2)nc2c(=O)n(C)c(=O)nc1-2 | 1 | 21 | 6 | -23 | -2 | 18
CCCCc1c(C)nc2c(OC)cccc2c1O | 0 | 52 | 43 | 17 | 74 | 46
COC(=O)c1ccc(Cl)c2c1C1C=CCC1C(c1cccc3ccccc13)N2 (configuration not stated) | -6 | 40 | -5 | -20 | -21 | -34
O=C(Nc1ccc(-c2nc3cc4ccccc4cc3[nH]2)cc1)c1cccc(Br)c1 | 16 | 42 | 13 | -24 | 7 | -33
O=C(NCCCN1CCC(N2CCCCC2)CC1)C1=Cc2cc(Br)ccc2OC1 | 52 | 10 | 31 | -28 | 14 | -57
COc1cccc(C(=O)Nc2ccc(-c3nc4ccccc4[nH]3)cc2)c1 | 27 | 39 | 3 | 7 | 34 | 35
CC(C)=CCN1CCC(C(=O)Nc2ccc(-c3nc4ccccc4[nH]3)cc2)CC1 | 10 | 22 | 6 | 4 | 11 | -26
Cc1cccc(-n2ncc3c(O)nc(-n4nc(C)cc4NC(=O)c4cc5ccccc5o4)nc32)c1 | 6 | 39 | 23 | 1 | 23 | 82
COc1cccc(Nc2nc(NCCO)c3ccccc3n2)c1.Cl | 15 | -1 | 44 | -16 | 3 | 46
Oc1c(C(Nc2ccccn2)c2cccc(Oc3ccccc3)c2)ccc2cccnc12 (configuration not stated) | 113 | 101 | 91 | 97 | 139 | 106
COc1cc2c3cc1Oc1c(OC)c(OC)cc4c1C(Cc1ccc(O)c(c1)Oc1ccc(cc1)CC3N(C)CC2)N(C)CC4.Cl (configuration not stated) | -12 | 36 | 3 | 32 | 43 | 83
O=C(Nc1ccccc1O)c1ccc(-c2ccc(Cl)cc2Cl)o1 | -37 | -23 | 34 | 66 | 11 | 64
CC(Oc1ccc(NC(=O)c2cccs2)cc1)C(=O)c1ccc(Cl)cc1 (configuration not stated) | -10 | 1 | 40 | 60 | 2 | -5
O=C(Nc1ccc(Cl)c(Cl)c1)Nc1ccc(Cl)c(Cl)c1 | 82 | 59 | 54 | 82 | 89 | 116
CCOC(=O)c1c(C)n(-c2ccc(Cl)cc2)c2ccc(OC(=O)C=Cc3ccccc3)cc12 | 18 | 26 | 4 | -5 | 2 | 51
COc1ccc(OC)c(C2C3=C(CC(C)(C)CC3=O)N(c3ccc(Cl)c(Cl)c3)C3=C2C(=O)CC(C)(C)C3)c1 | 9 | 31 | 28 | 5 | -4 | 3
